# Assay results taken from patent US12473249B2, “Aromatic compounds and pharmaceutical uses thereof” (BASF AS, priority 2018, dated 2025).
# Marks after values point to notes of the source that are not given here.
# How the values were obtained:
# Assay type in all cases: in vivo, mouse
# ob/ob AMLN mice = experiment: Glycemic control (oral glucose tolerance test, fasting glucose and insulin) in ob/ob AMLN mice; conditions: 0.3 mmol/kg bw day
# Description: (§1) ob/ob mice are consistently fibrosis (liver) prone when cholesterol (2%) and 40% fat (containing 18% trans-fatty acids) and 20% fructose are added to a high-caloric diet (i.e., AMLN diet). ob/ob mice on AMLN diet (termed ‘ob/ob AMLN mice’) develop steatohepatitis and fibrosis within a shorter timeframe (<12 weeks) compared with wild-type C57BL/6 mice (AMLN mice) fed the same diet. ob/ob AMLN mice provide an obese diet-induced model of NASH that also allows the study of effects on glycemic control.
# Thirty male ob/ob mice (5 weeks old) were fed the AMLN diet for 15 weeks then randomised into 3 groups of 10 mice/group to receive Compound B or Compound A (both at 0.3 mmol/kg bw day) or no treatment (vehicle) for a further 4 weeks. Assessment of the hepatic expression of key genes regulating plasma lipid concentrations (LDLr), hepatic fibrosis (collA1), bile acid transport/re-uptake (Slc51b and Slc10a2) and inflammation (CD68) was made via RNA sequencing at 4 weeks. […] An additional group of mice (n=5) were also treated with a PPAR-γ agonist (pioglitazone, 30 mg/kg bw day) was also included to compare effects upon bodyweight.
# APOE*3Leiden mice = experiment: Plasma lipids in high-fat diet fed APOE*3Leiden mice
# Description: The APOE*3Leiden mouse expresses a variant of the human apolipoprotein E3 (APOE3), the APOE*3Leiden, in addition to the human apolipoprotein C1 (APOC1).
# Studies were performed in APOE*3Leiden mice (13-15 weeks old) placed on a semi-synthetic high fat diet (24% fat w/w) with 0.25% cholesterol w/w. After a 4-week run-in period, mice were sub-divided into groups of 5 mice each and administration of Compound A, Compound B, or vehicle alone was started. Both Compound B and Compound A were administered at a dose of 0.3 mmol/kg bw/day via diet. Sunflower oil (10 ml v/w) was used as a vehicle to facilitate mixing. After 4 weeks of treatment mice were sacrificed by C02 asphyxiation and plasma cholesterol and triglycerides were measured using commercially available kits (Roche*/Hitachi©).
# In a further study, performed as described above, the effects of Compound A, Compound B, and Compound C were compared with the effects of Reference Compound 1 ((Z)-3-(pent-2-en-1-yloxy)benzoic acid) and Reference Compound 2 ((Z)-4-(pent-2-en-1-yloxy)benzoic acid) on triglyceride levels. […] The results of this study are described in Example 17.
# C57BL/6 mice = experiment: Hepatic steatosis in PN-fed C57BL/6 mice intravenously administered saline, Intralipid or Omegaven
# Description: Male C57BL/6 mice, 6 to 8 weeks old at initiation of the experiments, were used for all experiments. One group was fed an ad libitum diet of standard rodent chow and water. Six other groups (10 mice per group) were fed a parenteral nutrition (PN) solution ab libitum as described above.
# The PN-fed groups received tail vein injections every other day of saline, Omegaven® dosed at 2.4 g/kg/day, or Intralipid® (commercial soybean oil lipid emulsion) dosed at 2.4 g/kg/day and were treated with orogastric gavage administration (every other day) of either MCT or Compound A dosed at 0.6 mmol/kg bw. Intravenous saline was isovolumetric to Intralipid® groups. MCT orogastric gavage was isovolumetric to Compound A treatment (200 μl). The 6 experimental PN diet groups are listed below: • (1) Saline (intravenous)+PN+MCT (gavage) • (2) Intralipid® (intravenous)+PN+MCT (gavage) • (3) Omegaven® (intravenous)+PN+MCT (gavage) • (4) Saline (intravenous)+PN+Compound A (gavage) • (5) Intralipid® (intravenous)+PN+Compound A (gavage) • (6) Omegaven® (intravenous)+PN+Compound A (gavage)
# [1] = test system: hepatic expression of key genes; experiment: Hepatic target gene expression via RNA sequencing in ob/ob AMLN mice; conditions: 0.3 mmol/kg bw day, 4 weeks treatment
# Description: as §1
# (§2) Thirty male ob/ob mice (5 weeks old) were fed the AMLN diet for 15 weeks then randomised into 3 groups of 10 mice/group to receive Compound B or Compound A (both at 0.3 mmol/kg bw day) or no treatment (vehicle) for a further 4 weeks. Assessment of the hepatic expression of key genes regulating plasma lipid concentrations (LDLr), hepatic fibrosis (collA1), bile acid transport/re-uptake (Slc51b and Slc10a2) and inflammation (CD68) was made via RNA sequencing at 4 weeks. To assess the effects of Compound B and Compound A on glycemic control, an oral glucose tolerance test (OGTT) was also performed at 3 weeks. An additional group of mice (n=5) were also treated with a PPAR-γ agonist (pioglitazone, 30 mg/kg bw day) was also included to compare effects upon bodyweight.
# [2] = Relative bodyweight in ob/ob AMLN mice; conditions: 0.3 mmol/kg bw day, 4 weeks treatment, FIG. 11
# Description: as §1, §2
# [3] = high-fat high-cholesterol diet, 4 weeks treatment
# [4] = high-fat high-cholesterol diet, 4 weeks treatment, dose 0.1 mmol/kg bw/day
# [5] = PN diet, 19 days, 0.6 mmol/kg bw by gavage, FIGS. 20-21
smiles,measurement,setting,value
"CCCCCOc1cccc(C(=O)O)c1C [Compound A, 2-methyl-3-(pentyloxy)benzoic acid]",total plasma glucose (area-under-the-curve from 0-240 mins) versus vehicle in response to an oral glucose load,"ob/ob AMLN mice; after 3 weeks treatment, FIG. 1",significantly reduce
same,plasma glucose at 30- and 60-mins versus vehicle in response to an oral glucose load,"ob/ob AMLN mice; after 3 weeks treatment, FIG. 2",significantly reduce
same,fasting plasma insulin versus vehicle,"ob/ob AMLN mice; after 4 weeks treatment, FIG. 3",reduce
same,fasting plasma glucose versus vehicle,"ob/ob AMLN mice; after 4 weeks treatment, FIG. 4",significantly reduce
same,triglyceride levels over 4 weeks,"APOE*3Leiden mice; further study with reference compounds, 0.3 mmol/kg bw/day, FIG. 31",significantly reduced
same,plasma TG versus vehicle,APOE*3Leiden mice; [3],significantly reduce
same,total plasma cholesterol versus vehicle,APOE*3Leiden mice; [3],significantly reduce
same,Reduction in plasma TG vs control (%),APOE*3Leiden mice; [4],79*** %
same,Reduction in plasma cholesterol vs control (%),APOE*3Leiden mice; [4],30*** %
same,development of steatosis induced by an oral PN diet (H&E stain in isolated liver sections),"C57BL/6 mice; PN diet with intravenous saline, Intralipid or Omegaven, 0.6 mmol/kg bw by gavage every other day, FIGS. 22-25",prevented the development of steatosis
same,development of steatosis (Oil Red O stain in isolated liver sections),"C57BL/6 mice; PN diet with intravenous saline, Intralipid or Omegaven, 0.6 mmol/kg bw by gavage every other day, FIGS. 26-29",prevented the development of steatosis
same,quantification of lipid accumulation (Oil Red O) as compared with the chow-fed control,"C57BL/6 mice; PN diet with intravenous saline, Intralipid or Omegaven, 0.6 mmol/kg bw by gavage, FIG. 30",prevented the development of steatosis
same,normalized body mass vs any other experimental group,C57BL/6 mice; [5],not significantly different
same,normalized kidney mass vs any other experimental group,C57BL/6 mice; [5],not significantly different
same,normalized liver mass vs any other experimental group,C57BL/6 mice; [5],not significantly different
same,normalized spleen mass vs any other experimental group,C57BL/6 mice; [5],not significantly different
same,hepatic expression of Coll al (collagen1a1) versus vehicle,[1]; FIG. 5,significantly reduce
same,hepatic expression of Slc10a2 versus vehicle,[1]; FIG. 6,significantly decreases
same,hepatic expression of Slc51b versus vehicle,[1]; FIG. 7,significantly decreases
same,hepatic expression of ABCC2 versus vehicle,[1]; FIG. 8,significantly increases
same,hepatic expression of CYP7A1,[1]; FIG. 9,reduces
same,hepatic expression of CD68 versus vehicle,[1]; FIG. 10,significantly decreases
same,expression of hepatic LDLr versus vehicle,[1]; FIG. 12,significantly increase
same,relative bodyweight versus vehicle,[2],significantly decreased
